Reference: paper PMC12281424, “A Rac-specific competitive inhibitor of guanine nucleotide binding reduces metastasis in triple-negative breast cancer” (Cell Reports Medicine, 2025)

Legend:
[1] = tested on: RAC1-GTP levels in MDA-MB-468 Luc cells; test: RAC-GTP immunofluorescence; format: cell-based
Protocol: Luciferase (Luc, green) was used to detect the cells. […] (C) Quantification of colony number of indicated cancer cell lines in the presence of A41 (10 μM) expressed as the percentage of control in the absence of A41. […] (D) Immunoblot analysis and corresponding quantification of AKT and P44/42 expression and phosphorylation (pAKT, p44/42) in MDA-MB-468 Luc cells in the absence (−) and presence of NSC23766 or A41 (1 h at 10^−5 M). […] (E) 3D invasion assay of MDA-MB-468 Luc and cancer-associated fibroblasts (CAFs) and corresponding quantification (scale bars: 200 μm).
After indicated treatments, cells were fixed with 4% paraformaldehyde and permeabilized in PBS 0.5% Triton X-100. To assess RAC1 activity, cells were then incubated with RAC-GTP antibody (26903, NewEast Biosciences, King of Prussia, Pa) (dilution 1/500) overnight at room temperature, followed by secondary Alexa 568-labeled anti-mouse antibody (dilution 1/1000). Cancer cells were detected with firefly luciferase antibody (ab21176, Abcam) (dilution 1/500) overnight at room temperature, followed by secondary Alexa 488-labeled anti-rabbit antibody (dilution 1/1000). To assess cytoskeleton organization, cells were incubated with Alexa Fluor 488 phalloidin (A12379, Invitrogen) to visualize F-actin. After staining, cells were mounted in Prolong gold antifade reagent with DAPI and images were captured by a fluorescence microscope.

Aurora-C(h) = Aurora-C(h) (Homo sapiens, UniProt Q9UQB9); test: Kinase Profiler; format: biochemical
Chain of Aurora-C(h) (Q9UQB9 whole entry): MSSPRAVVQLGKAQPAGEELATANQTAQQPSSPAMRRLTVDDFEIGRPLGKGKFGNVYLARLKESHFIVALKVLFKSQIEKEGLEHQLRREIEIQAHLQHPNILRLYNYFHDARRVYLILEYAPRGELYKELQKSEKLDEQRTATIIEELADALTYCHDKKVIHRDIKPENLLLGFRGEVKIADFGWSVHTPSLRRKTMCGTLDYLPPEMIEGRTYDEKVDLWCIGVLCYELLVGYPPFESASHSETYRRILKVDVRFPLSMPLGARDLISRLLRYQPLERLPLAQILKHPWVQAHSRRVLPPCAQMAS
Protocol: (§1) Blood cell counts, kinase profiler, safety screen, bacterial cytotoxicity, Ames, micronucleus assays were performed by the company Eurofins (France). The kinase profiler was performed by the company Eurofins (Discovery, Panlab and Cerep).

CDK5/p35(h) = CDK5/p35(h) (Homo sapiens, UniProt Q00535); test: Kinase Profiler; format: biochemical
Protocol: as §1

CK1γ3(h) = CK1γ3(h) (Homo sapiens, UniProt Q9Y6M4); test: Kinase Profiler; format: biochemical
Protocol: as §1

CLK4(h) = CLK4(h) (Homo sapiens, UniProt Q9HAZ1); test: Kinase Profiler; format: biochemical
Chain of CLK4(h) (Q9HAZ1 whole entry): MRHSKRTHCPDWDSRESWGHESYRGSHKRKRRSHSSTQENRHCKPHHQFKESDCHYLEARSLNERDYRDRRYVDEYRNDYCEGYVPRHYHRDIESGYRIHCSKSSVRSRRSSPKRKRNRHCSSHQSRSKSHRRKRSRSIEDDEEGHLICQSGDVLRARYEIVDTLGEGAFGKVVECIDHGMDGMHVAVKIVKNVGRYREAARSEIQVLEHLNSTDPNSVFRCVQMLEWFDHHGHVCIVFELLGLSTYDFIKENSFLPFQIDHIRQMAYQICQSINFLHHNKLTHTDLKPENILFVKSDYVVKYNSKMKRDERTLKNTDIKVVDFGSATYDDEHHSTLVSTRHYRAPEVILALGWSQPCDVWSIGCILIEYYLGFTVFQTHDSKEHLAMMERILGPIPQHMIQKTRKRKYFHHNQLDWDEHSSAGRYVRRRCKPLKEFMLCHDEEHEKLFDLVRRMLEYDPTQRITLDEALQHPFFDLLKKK
Protocol: (§2) The kinase profiler was performed by the company Eurofins (Discovery, Panlab and Cerep).

EGFR(T790M)(h) = EGFR(T790M)(h) (Homo sapiens, UniProt P00533, T790M); test: Kinase Profiler; format: biochemical
Protocol: as §2

Fgr(h) = Fgr(h) (Homo sapiens, UniProt P09769); test: Kinase Profiler; format: biochemical
Chain of Fgr(h) (P09769 whole entry): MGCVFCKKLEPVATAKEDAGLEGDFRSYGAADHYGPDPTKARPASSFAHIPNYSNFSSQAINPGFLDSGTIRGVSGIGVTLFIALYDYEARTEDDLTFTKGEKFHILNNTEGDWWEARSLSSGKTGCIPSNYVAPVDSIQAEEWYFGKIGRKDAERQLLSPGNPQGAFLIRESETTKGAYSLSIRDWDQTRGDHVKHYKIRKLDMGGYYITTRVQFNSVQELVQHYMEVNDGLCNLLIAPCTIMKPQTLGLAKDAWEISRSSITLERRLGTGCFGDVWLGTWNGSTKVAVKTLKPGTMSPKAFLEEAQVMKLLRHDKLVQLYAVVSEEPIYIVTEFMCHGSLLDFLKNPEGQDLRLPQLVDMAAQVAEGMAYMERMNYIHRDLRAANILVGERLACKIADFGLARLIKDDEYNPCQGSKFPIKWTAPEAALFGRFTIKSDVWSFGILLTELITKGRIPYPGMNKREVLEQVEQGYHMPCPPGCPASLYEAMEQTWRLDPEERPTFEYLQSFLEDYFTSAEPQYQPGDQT
Protocol: as §2

Flt3(h) = Flt3(h) (Homo sapiens, UniProt P36888); test: Kinase Profiler; format: biochemical
Protocol: as §2

Fms(Y969C)(h) = Fms(Y969C)(h) (Homo sapiens, UniProt P07333, Y969C); test: Kinase Profiler; format: biochemical
Protocol: as §2

MKK4(m) = MKK4(m) (Mus musculus, UniProt P47809); test: Kinase Profiler; format: biochemical
Protocol: as §2

MLCK(h) = MLCK(h) (Homo sapiens, UniProt Q15746); test: Kinase Profiler; format: biochemical
Protocol: as §1

NDR1(h) = NDR1(h) (Homo sapiens, UniProt Q15208); test: Kinase Profiler; format: biochemical
Chain of NDR1(h) (Q15208 whole entry): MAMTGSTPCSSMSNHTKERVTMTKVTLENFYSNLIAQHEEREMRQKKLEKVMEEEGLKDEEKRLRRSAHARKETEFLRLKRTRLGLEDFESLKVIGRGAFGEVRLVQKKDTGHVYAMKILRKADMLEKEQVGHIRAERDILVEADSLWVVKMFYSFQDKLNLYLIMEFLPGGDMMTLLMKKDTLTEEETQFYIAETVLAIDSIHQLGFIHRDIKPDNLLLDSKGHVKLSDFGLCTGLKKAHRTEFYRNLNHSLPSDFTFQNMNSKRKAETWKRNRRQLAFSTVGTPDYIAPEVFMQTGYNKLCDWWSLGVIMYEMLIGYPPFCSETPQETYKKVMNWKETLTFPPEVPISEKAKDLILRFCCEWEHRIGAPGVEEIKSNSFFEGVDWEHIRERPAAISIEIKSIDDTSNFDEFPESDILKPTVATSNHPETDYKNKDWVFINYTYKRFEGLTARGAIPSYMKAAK
Protocol: as §2

RIPK2(h) = RIPK2(h) (Homo sapiens, UniProt O43353); test: Kinase Profiler; format: biochemical
Chain of RIPK2(h) (O43353 whole entry): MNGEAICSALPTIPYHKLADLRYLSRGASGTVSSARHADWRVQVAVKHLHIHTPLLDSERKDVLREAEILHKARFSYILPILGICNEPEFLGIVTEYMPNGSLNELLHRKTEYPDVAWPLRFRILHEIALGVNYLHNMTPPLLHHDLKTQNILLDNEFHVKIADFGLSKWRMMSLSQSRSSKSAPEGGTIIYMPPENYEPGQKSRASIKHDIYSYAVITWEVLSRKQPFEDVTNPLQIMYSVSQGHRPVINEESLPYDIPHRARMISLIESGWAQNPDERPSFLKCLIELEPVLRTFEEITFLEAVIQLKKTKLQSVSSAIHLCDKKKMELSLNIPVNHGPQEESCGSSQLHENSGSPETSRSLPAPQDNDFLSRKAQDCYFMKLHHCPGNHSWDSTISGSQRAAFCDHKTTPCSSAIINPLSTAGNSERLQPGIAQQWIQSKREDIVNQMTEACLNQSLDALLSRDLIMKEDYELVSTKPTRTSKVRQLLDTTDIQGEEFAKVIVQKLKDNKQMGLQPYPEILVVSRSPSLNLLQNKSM
Protocol: as §2

ROCK-II(h) = ROCK-II(h) (Homo sapiens, UniProt O75116); test: Kinase Profiler; format: biochemical
Chain of ROCK-II(h) (O75116 whole entry): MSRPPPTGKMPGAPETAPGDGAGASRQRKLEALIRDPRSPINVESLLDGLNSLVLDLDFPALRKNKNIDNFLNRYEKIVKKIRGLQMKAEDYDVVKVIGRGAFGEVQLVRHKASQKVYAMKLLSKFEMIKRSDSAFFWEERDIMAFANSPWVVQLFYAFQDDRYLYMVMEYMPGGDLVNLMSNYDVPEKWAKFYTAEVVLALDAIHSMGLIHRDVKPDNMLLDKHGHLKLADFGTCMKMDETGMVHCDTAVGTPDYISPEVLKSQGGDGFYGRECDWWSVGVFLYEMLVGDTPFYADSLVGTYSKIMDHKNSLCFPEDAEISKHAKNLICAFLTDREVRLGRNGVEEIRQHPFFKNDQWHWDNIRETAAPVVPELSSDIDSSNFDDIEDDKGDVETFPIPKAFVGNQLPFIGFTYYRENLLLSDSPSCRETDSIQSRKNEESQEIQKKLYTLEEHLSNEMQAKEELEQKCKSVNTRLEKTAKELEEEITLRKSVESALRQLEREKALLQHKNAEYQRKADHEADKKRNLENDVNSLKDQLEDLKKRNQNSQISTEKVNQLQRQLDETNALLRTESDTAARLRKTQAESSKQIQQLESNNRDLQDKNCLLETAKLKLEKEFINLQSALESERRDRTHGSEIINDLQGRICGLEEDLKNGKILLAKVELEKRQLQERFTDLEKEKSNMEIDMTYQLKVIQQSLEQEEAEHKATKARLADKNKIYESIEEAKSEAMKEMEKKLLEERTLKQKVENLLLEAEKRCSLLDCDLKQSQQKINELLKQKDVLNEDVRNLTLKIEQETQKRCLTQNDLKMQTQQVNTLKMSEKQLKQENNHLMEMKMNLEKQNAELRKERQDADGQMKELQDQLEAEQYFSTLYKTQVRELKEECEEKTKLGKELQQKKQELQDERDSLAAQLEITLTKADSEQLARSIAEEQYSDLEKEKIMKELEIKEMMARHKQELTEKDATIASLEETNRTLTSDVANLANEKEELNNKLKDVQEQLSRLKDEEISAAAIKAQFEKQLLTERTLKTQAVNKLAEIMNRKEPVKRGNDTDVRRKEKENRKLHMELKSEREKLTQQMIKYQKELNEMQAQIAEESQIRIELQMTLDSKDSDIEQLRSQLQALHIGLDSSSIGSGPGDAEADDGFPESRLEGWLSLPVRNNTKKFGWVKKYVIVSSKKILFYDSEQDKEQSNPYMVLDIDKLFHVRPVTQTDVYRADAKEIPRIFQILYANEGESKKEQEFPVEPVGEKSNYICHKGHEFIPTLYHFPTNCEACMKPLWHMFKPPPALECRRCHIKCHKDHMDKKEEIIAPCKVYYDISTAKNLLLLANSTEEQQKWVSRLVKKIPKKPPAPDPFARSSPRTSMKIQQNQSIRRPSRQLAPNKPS
Protocol: as §1

SNRK(h) = SNRK(h) (Homo sapiens, UniProt Q9NRH2); test: Kinase Profiler; format: biochemical
Chain of SNRK(h) (Q9NRH2 whole entry): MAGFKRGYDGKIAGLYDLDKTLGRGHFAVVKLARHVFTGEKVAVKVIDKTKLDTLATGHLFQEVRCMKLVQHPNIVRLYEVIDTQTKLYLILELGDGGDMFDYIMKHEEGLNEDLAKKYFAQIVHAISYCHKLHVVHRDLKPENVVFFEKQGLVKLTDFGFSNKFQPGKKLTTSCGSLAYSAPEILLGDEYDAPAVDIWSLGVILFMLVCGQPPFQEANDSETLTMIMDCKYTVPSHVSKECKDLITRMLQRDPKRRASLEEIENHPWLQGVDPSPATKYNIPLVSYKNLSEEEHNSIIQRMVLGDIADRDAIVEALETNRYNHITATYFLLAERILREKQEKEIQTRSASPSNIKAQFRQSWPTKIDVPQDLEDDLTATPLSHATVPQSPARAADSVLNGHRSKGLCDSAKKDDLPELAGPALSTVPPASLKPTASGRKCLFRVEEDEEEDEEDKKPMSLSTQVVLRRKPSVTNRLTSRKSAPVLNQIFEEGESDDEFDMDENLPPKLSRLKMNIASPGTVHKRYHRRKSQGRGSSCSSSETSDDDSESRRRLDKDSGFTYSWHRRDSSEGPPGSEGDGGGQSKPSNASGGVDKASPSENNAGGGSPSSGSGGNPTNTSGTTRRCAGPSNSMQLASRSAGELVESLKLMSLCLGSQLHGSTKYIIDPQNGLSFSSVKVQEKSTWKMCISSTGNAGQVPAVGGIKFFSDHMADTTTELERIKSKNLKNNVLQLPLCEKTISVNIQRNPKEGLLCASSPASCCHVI
Protocol: as §2

Tie2(R849W)(h) = Tie2(R849W)(h) (Homo sapiens, UniProt Q02763, R849W); test: Kinase Profiler; format: biochemical
Protocol: as §1

Yes(h) = Yes(h) (Homo sapiens, UniProt P07947); test: Kinase Profiler; format: biochemical
Chain of Yes(h) (P07947 whole entry): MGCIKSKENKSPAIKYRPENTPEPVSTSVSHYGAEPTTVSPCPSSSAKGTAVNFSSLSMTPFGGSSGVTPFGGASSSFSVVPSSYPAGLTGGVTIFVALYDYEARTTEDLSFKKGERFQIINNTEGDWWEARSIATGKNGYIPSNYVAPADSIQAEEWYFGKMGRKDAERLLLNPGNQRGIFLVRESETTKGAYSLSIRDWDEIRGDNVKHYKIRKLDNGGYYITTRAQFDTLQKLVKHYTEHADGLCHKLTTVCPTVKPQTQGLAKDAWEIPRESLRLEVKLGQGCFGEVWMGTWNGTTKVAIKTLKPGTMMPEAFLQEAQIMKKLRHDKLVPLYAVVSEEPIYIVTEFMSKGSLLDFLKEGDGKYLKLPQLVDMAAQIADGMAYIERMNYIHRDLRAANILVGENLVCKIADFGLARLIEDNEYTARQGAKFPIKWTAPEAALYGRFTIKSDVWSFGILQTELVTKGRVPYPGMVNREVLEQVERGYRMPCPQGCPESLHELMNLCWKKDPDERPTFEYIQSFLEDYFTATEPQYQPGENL
Protocol: as §2

[2] = biological target: PI3K (p110a(E542K)/p85a)(m) (Mus musculus, UniProt P42337, E542K); test: Kinase Profiler; format: biochemical
Protocol: as §2

CDK13/cyclinK(h) = CDK13/cyclinK(h) (Homo sapiens, UniProt Q14004)
Protocol: as §1

## COc1ccc(OC)c(NS(=O)(=O)c2ccc(NC(=O)CCSc3ccc(C)cc3)cc2)c1 [Compound A41]
[1]; 10^-5 M, 1 h
  decrease of active RAC1-GTP levels: more than 50%
[1]; dose-response curve, Figure 5A
  IC50: 810 nM
Aurora-C(h)
  Activity(%): 100%
CDK5/p35(h)
  Activity(%): 99%
CK1γ3(h)
  Activity(%): 101%
CLK4(h)
  Activity(%): 102%
EGFR(T790M)(h)
  Activity(%): 113%
Fgr(h)
  Activity(%): 114%
Flt3(h)
  Activity(%): 98%
Fms(Y969C)(h)
  Activity(%): 107%
MKK4(m)
  Activity(%): 109%
MLCK(h)
  Activity(%): 103%
NDR1(h)
  Activity(%): 114%
RIPK2(h)
  Activity(%): 94%
ROCK-II(h)
  Activity(%): 93%
SNRK(h)
  Activity(%): 123%
Tie2(R849W)(h)
  Activity(%): 101%
Yes(h)
  Activity(%): 110%
[2]
  Activity(%): 99%
CDK13/cyclinK(h)
  Activity(%): 97%
